According to patent US9687539B2, “CD4+ T survivin epitopes and uses thereof” (Commissariat a I'Energie Atomique, priority 2005, dated 2017):
Substitutions are numbered along the chain they refer to. No end group written: not given here.

What was measured:
HLA-DRB3 (DRB3*0101) = HLA-DRB3 (DRB3*0101) (Homo sapiens, UniProt P01903+P79483); assay: Competitive HLA II/peptide binding assay, HLA-DRB3; conditions: competition with biotinylated tracer; 3 independent experiments
HLA-DR13 (DRB1*1301) = HLA-DR13 (DRB1*1301) (Homo sapiens, UniProt P01903+P01911, A100E/A169T/K41T/L162R/M171V/P40S/Q125H/Q178H/Q39Y/Q99D/R42S/S66N/T262R/W38E/Y61H); assay: Competitive HLA II/peptide binding assay, HLA-DR13; conditions: competition with biotinylated tracer; 3 independent experiments; read-out: Binding activity DR13 (IC50)
HLA-DP401 (DP*0401) = biological target: T1, HLA-DP401 (DP*0401) (Homo sapiens, UniProt P04440+P20036); assay: biochemical; conditions: competition with biotinylated tracer; 3 independent experiments; read-out: Binding activity DP401 (IC50)
T1 sequence (P04440 30-258): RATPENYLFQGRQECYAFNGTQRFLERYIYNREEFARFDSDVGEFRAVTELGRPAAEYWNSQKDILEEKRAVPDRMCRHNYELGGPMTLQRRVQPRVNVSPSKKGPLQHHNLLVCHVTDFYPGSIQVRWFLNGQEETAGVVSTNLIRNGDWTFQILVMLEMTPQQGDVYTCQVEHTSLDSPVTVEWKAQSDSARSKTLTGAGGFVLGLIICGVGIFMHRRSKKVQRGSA
T1 sequence (P20036 29-260): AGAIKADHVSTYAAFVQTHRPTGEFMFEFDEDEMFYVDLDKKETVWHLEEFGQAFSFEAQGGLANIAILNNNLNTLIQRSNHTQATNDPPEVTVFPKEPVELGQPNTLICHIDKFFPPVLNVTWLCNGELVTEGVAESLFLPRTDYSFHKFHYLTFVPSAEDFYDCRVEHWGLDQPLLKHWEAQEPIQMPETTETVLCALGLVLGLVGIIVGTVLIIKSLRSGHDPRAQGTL

HLA-DP402 (DP*0402) = biological target: T2, HLA-DP402 (DP*0402) (Homo sapiens, UniProt P04440+P20036, A65V/A84D/A85E/L207M); assay: biochemical; conditions: competition with biotinylated tracer; 3 independent experiments; read-out: Binding activity DP402 (IC50)
T2 sequence (P04440 30-258 A65V/A84D/A85E): T1 sequence (P04440 30-258) with A36V, A55D, A56E
T2 sequence (P20036 29-260): T1 sequence (P20036 29-260)

HLA-DRB4 (DRB4*0101) = HLA-DRB4 (DRB4*0101) (Homo sapiens, UniProt P01903+P13762, G164S); assay: Competitive HLA II/peptide binding assay, HLA-DRB4; conditions: competition with biotinylated tracer; 3 independent experiments
[1] = system: 12 predominant HLA II molecules; assay: Binding to the 12 predominant HLA II molecules, summary; set-up: species or system human; conditions: for No. of molecules fixed: number of the 12 predominant HLA II molecules bound (IC50 < 1000 nM)
Source text: The assays for binding to HLA II molecules are competitive binding assays with immunoenzymatic visualization, as described in U.S. Pat. No. 6,649,166, Texier et al., J. Immunol., 2000, 164, 3177-3184 and Texier et al., Eur. J. Immunol., 2001, 31, 1837-1846, for the HLA-DR molecules, and in PCT international application WO 03/040299 and Castelli et al., J. Immunol., 2002, 169, 6928-6934, for the HLA-DP4 molecule. The use of these assays for measuring the binding activity of peptides derived from various antigens is illustrated in U.S. Pat. No. 6,649,166 and PCT international applications WO 02/090382, WO 03/040299 and WO 2004/014936.
The sensitivity of each assay is reflected by the IC50 values observed with the nonbiotinylated peptides which correspond to the tracers; the IC50 values of the tracers vary by a factor of less than three.

HLA-DR15 (DRB1*1501) = HLA-DR15 (DRB1*1501) (Homo sapiens, UniProt P01903+P01911); assay: Competitive HLA II/peptide binding assay, HLA-DR15; conditions: competition with biotinylated tracer; 3 independent experiments
HLA-DR3 (DRB1*0301) = HLA-DR3 (DRB1*0301) (Homo sapiens, UniProt P01903+P01911, A100K/A102G/A103R/A169T/F55Y/I96L/K41T/L162R/M171V/P40S/Q125H/Q178H/Q39Y/R42S/S66N/T106N/T262R/W38E/Y61H); assay: biochemical; conditions: competition with biotinylated tracer; 3 independent experiments; read-out: Binding activity DR3 (IC50)
HLA-DR7 (DRB1*0701) = HLA-DR7 (DRB1*0701) (Homo sapiens, UniProt P01903+P01911, A100R/A102G/A103Q/D57E/D86V/E43K/F76Y/K127E/L162R/M171V/P40G/Q125H/Q99D/R33Q/R42Y/R54Q/S133A/S66F/T210M/V115G/Y107V/Y59L/Y89S); assay: biochemical; conditions: competition with biotinylated tracer; 3 independent experiments; read-out: Binding activity DR7 (IC50)
HLA-DRB5 (DRB5*0101) = HLA-DRB5 (DRB5*0101) (Homo sapiens, UniProt P01903+Q30154); assay: Competitive HLA II/peptide binding assay, HLA-DRB5; conditions: competition with biotinylated tracer; 3 independent experiments
HLA-DR4 (DRB1*0401) = HLA-DR4 (DRB1*0401) (Homo sapiens, UniProt P01903+P01911, A100K/A169T/F76Y/I96L/K127E/L162R/M171V/N62H/P40V/Q125Y/R42H/S133A/S149N/S66Y/V115G/V209L/W38E); assay: Competitive HLA II/peptide binding assay, HLA-DR4; conditions: competition with biotinylated tracer; 3 independent experiments
HLA-DR11 (DRB1*1101) = HLA-DR11 (DRB1*1101) (Homo sapiens, UniProt P01903+P01911, A100R/A169T/A87E/I96F/K41T/L162R/M171V/P40S/Q125H/Q178H/Q39Y/Q99D/R42S/S66Y/T262R/V115G/W38E); assay: biochemical; conditions: competition with biotinylated tracer; 3 independent experiments; read-out: Binding activity DR11 (IC50)
HLA-DR1 (DRB1*0101) = HLA-DR1 (DRB1*0101) (Homo sapiens, UniProt P01903+P01911, A100R/D57E/F55L/F60I/F76Y/I96L/L162R/M171V/P40L/Q125E/R42F/V115G/Y59C); assay: Competitive HLA II/peptide binding assay, HLA-DR1; conditions: competition with biotinylated tracer; 3 independent experiments

Compound	IC50 (HLA-DRB3 (DRB3*0101)) [µM]	IC50 (HLA-DR13 (DRB1*1301)) [µM]	IC50 (HLA-DP401 (DP*0401)) [µM]	IC50 (HLA-DP402 (DP*0402)) [µM]	IC50 (HLA-DRB4 (DRB4*0101)) [µM]	No. of molecules fixed [1]	IC50 (HLA-DR15 (DRB1*1501)) [µM]	IC50 (HLA-DR3 (DRB1*0301)) [µM]	IC50 (HLA-DR7 (DRB1*0701)) [µM]	IC50 (HLA-DRB5 (DRB5*0101)) [µM]	IC50 (HLA-DR4 (DRB1*0401)) [µM]	IC50 (HLA-DR11 (DRB1*1101)) [µM]	IC50 (HLA-DR1 (DRB1*0101)) [µM]	Binding specificity for HLA II molecules [1]
EGWEPDDDPIEEHKK [65-79, E G W E P D D D P I E E H K K]	> 100	> 100	> 100	> 100	> 100	0	> 100	> 100	> 100	> 100	> 100	> 100	> 100	
KEFEETAKKVRRAIE [122-136, K E F E E T A K K V R R A I E]	> 100		> 100	> 100	> 100	3	1.2		20		> 100			
AGFIHCPTENEPDLA [peptide 41-55, A G F I H C P T E N E P D L A]		> 100	> 100	> 100		1		> 100			5			binds only to the HLA-DRB4 molecule
CC(C)C[C@H](NC(=O)[C@H](Cc1ccccc1)NC(=O)[C@@H]1CCCN1C(=O)[C@H](CCC(N)=O)NC(=O)[C@H](Cc1c[nH]c2ccccc12)NC(=O)[C@H](C)NC(=O)[C@@H]1CCCN1C(=O)[C@@H]1CCCN1C(=O)[C@H](CC(C)C)NC(=O)[C@@H](NC(=O)[C@@H]1CCCN1)[C@@H](C)O)C(=O)N[C@@H](CCCCN)C(=O)N[C@@H](CC(=O)O)C(=O)N[C@@H](Cc1c[nH]cn1)C(=O)N[C@@H](CCCNC(=N)N)C(=O)O [4-18, P T L P P A W Q P F L K D H R]	> 100				> 100	1	> 100	> 100	> 100	5.48	> 100		45	bind only to the HLA-DR11 molecule
FCFKELEGWEPDDDP [59-73, F C F K E L E G W E P D D D P]	> 100	> 100	> 100	> 100	> 100	0	8	> 100		45				
MGAPTLPPAWQPFLK [1-15, M G A P T L P P A W Q P F L K]	> 100	> 100			> 100	1		> 100	> 100	8	> 100			bind only to the HLA-DR11 molecule
ERMAEAGFIHCPTEN [36-50, E R M A E A G F I H C P T E N]	> 100	> 100				0	> 100	> 100	17		17			
KQFEELTLGEFLKLD [91-105, K Q F E E L T L G E F L K L D]	30	> 100			> 100	5		> 100				2.35		high affinity for the DR1, DR7, DRB5, DP401 and DP402 molecules
GEFLKLDRERAKNKI [99-113, G E F L K L D R E R A K N K I]	> 100			> 100	22	3	1.2			0.022		0.04		
DPIEEHKKHSSGCAF [72-86, D P I E E H K K H S S G C A F]	> 100		> 100	> 100	> 100	0	> 100	> 100	> 100		> 100	> 100		
LKLDRERAKNKIAKE [102-116, L K L D R E R A K N K I A K E]	> 100	> 100	> 100	> 100	> 100	1	> 100	> 100		0.018	> 100			
KELEGWEPDDDPIEE [62-76, K E L E G W E P D D D P I E E]	29	> 100	> 100	> 100	> 100	0	65	> 100	> 100	> 100	> 100	> 100	> 100	
